Reference: patent publication US9409884B2 (Rigel Pharmaceuticals, Inc., priority 2012, dated 2016)

Each molecule was assayed against AMPK (assay: AMPK activation, enzyme-linked immunosorbent assay). Settings: Table 12, compounds of Table 5.
Type: biochemical
How it was run: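 Read-out: ELISA, used to detect compound-driven activation of AMPK.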

Compound | EC50 [nM]
O=C(NC1CCN(Cc2ccc(Cl)cc2)CC1)c1ccc(OC2CCN(Cc3ccc(Cl)c(Cl)c3)CC2)c(F)c1 [Compound 5-80, N-(1-(4-chlorobenzyl)piperidin-4-yl)-4-(1-(3,4-dichlorobenzyl)piperidin-4-yloxy)-3-fluorobenzamide] | < 1000
N#Cc1ccc(N2CCC(Oc3ccc(C(=O)NC4CCN(Cc5ccc(Cl)cc5)CC4)cc3F)CC2)cc1 [Compound 5-81, N-(1-(4-chlorobenzyl)piperidin-4-yl)-4-(1-(4-cyanophenyl)piperidin-4-yloxy)-3-fluorobenzamide] | < 1000
O=C(NC1CCN(Cc2ccccc2)CC1)c1ccc(OC2CCN(Cc3ccc(Cl)c(Cl)c3)CC2)c(F)c1 [Compound 5-82, N-(1-benzylpiperidin-4-yl)-4-(1-(3,4-dichlorobenzyl)piperidin-4-yloxy)-3-fluorobenzamide] | < 1000
N#Cc1ccc(CN2CCC(Oc3ccc(C(=O)NC4CCN(Cc5ccncc5)CC4)cc3)CC2)cc1 [Compound 5-83, 4-(1-(4-cyanobenzyl)piperidin-4-yloxy)-N-(1-(pyridin-4-ylmethyl)piperidin-4-yl)benzamide] | < 1000
O=C(NC1CCN(Cc2ccccc2)CC1)c1ccc(OC2CCN(Cc3ccc(Cl)c(Cl)c3)CC2)c(Cl)c1 [Compound 5-84, N-(1-benzylpiperidin-4-yl)-3-chloro-4-(1-(3,4-dichlorobenzyl)piperidin-4-yloxy)benzamide] | < 1000
N#Cc1ccc(CN2CCC(Oc3ccc(C(=O)NC4CCN(Cc5ccccn5)CC4)cc3)CC2)cc1 [Compound 5-85, 4-(1-(4-cyanobenzyl)piperidin-4-yloxy)-N-(1-(pyridin-2-ylmethyl)piperidin-4-yl)benzamide] | < 1000
O=C(NC1CCN(Cc2ccccc2)CC1)c1cccc(OC2CCN(c3ccccn3)CC2)c1 [Compound 5-86, N-(1-benzylpiperidin-4-yl)-3-(1-(pyridin-2-yl)piperidin-4-yloxy)benzamide] | < 1000
O=C(NC1CCN(Cc2ccncc2)CC1)c1cccc(OC2CCN(c3ccc(C(F)(F)F)cc3)CC2)c1 [Compound 5-87, N-(1-(pyridin-4-ylmethyl)piperidin-4-yl)-3-(1-(4-(trifluoromethyl)phenyl)piperidin-4-yloxy)benzamide] | < 1000
N#Cc1ccc(N2CCC(Oc3cccc(C(=O)NC4CCN(Cc5ccncc5)CC4)c3)CC2)cc1 [Compound 5-88, N-(1-(pyridin-4-ylmethyl)piperidin-4-yl)-3-(1-(4-cyanophenyl)piperidin-4-yloxy)benzamide] | 1000 to 10000
N#Cc1cccc(CN2CCC(Oc3cccc(C(=O)NC4CCN(Cc5ccccc5)CC4)c3)CC2)c1 [Compound 5-89, N-(1-benzylpiperidin-4-yl)-3-(1-(3-cyanobenzyl)piperidin-4-yloxy)benzamide] | 1000 to 10000
CC(C)(C)OC(=O)N1CCC(Oc2ccc(C(=O)NC3CCN(Cc4ccccc4)CC3)cc2Cl)CC1 [Compound 5-90, tert-butyl 4-(4-(1-benzylpiperidin-4-ylcarbamoyl)-2-chlorophenoxy) piperidine-1-carboxylate] | 1000 to 10000
CC(C)(C)C(=O)N1CCC(Oc2ccc(C(=O)NC3CCN(Cc4ccccc4)CC3)cc2Cl)CC1 [Compound 5-91, N-(1-benzylpiperidin-4-yl)-3-chloro-4-(1-pivaloylpiperidin-4-yloxy)benzamide] | < 1000
CC(C)(C)OC(=O)N1CCC(Oc2ccc(C(=O)NC3CCN(Cc4ccccc4)CC3)cc2F)CC1 [Compound 5-92, tert-butyl 4-(4-(1-benzylpiperidin-4-ylcarbamoyl)-2-fluorophenoxy) piperidine-1-carboxylate] | 1000 to 10000
O=C(NC1CCN(Cc2ccccc2)CC1)c1ccc(OC2CCNCC2)c(Cl)c1 [Compound 5-93, N-(1-benzylpiperidin-4-yl)-3-chloro-4-(piperidin-4-yloxy)benzamide] | > 100000
COc1cc(C(=O)NCCCNC(=O)OC(C)(C)C)ccc1OC1CCN(Cc2ccc(C(F)(F)F)cc2)CC1 [Compound 5-94, tert-butyl 3-(3-methoxy-4-(1-(4-(trifluoromethyl)benzyl)piperidin-4-yloxy)benzamido) propylcarbamate] | < 1000
